Some test systems named below: KM12 colon; RPMI-8226 leukemia; NCI-H23 lung; SF-295 CNS; SN12C renal; MDA-MB-435; UACC-257 melanoma; SF-268 CNS; HCC-2998 colon; M14 melanoma; SW-620 colon; TK-10 renal; EKVX NSCLC; RXF 393 renal; SK-MEL-2 melanoma; NCI-H460 lung; SK-OV-3 ovarian; HL-60(TB) leukemia; HT29 colon; SNB-75 CNS.
Holding throughout (assay): inhibition of tumour cell growth, NCI panel, 48 h

Molecules are shown by their SMILES.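 A five-concentration, 48-hour dose response in 96-well plates underlies each endpoint, interpolated linearly between surrounding concentrations. The concentration for full growth arrest is given as TGI.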

`OCCc1ccsc1-c1sc(-c2cc(CCO)c(-c3sccc3CCO)s2)cc1CCO`: the TGI in the assay on KM12 colon was 11.5 µM; in the assay on RPMI-8226 leukemia, > 100 µM; with NCI-H23 lung, 41 µM; with SF-295 CNS it was 30.3 µM; with SN12C renal, 63.1 µM; with MDA-MB-435, 41.1 µM. For the same compound, the TGI in the assay with UACC-257 melanoma is 34.4 µM; in the assay on SF-268 CNS, 14 µM; in the assay on HCC-2998 colon, 30.2 µM; in the assay with M14 melanoma, 23.7 µM; with SW-620 colon, > 100 µM; in the assay on TK-10 renal, 44 µM. Besides, the TGI in the assay on EKVX NSCLC was found to be 32.4 µM; with RXF 393 renal it was 9.05 µM; in the assay with SK-MEL-2 melanoma, 29.5 µM; with NCI-H460 lung, 32.5 µM; with SK-OV-3 ovarian it was 35.8 µM.
Take `O=[N+]([O-])c1ccc(Oc2c(Cl)cc(S(=O)(=O)/N=C(\NO)Nc3ccc(Cl)cc3)cc2Cl)cc1`: the TGI was determined as 29 µM in the assay with KM12 colon; 22.8 µM in the assay with RPMI-8226 leukemia; 23.6 µM in the assay with NCI-H23 lung; 27.3 µM in the assay with SF-295 CNS; 25.8 µM in the assay on SN12C renal; 28 µM in the assay on MDA-MB-435. Besides, the TGI in the assay with HL-60(TB) leukemia turned out to be 13.7 µM; in the assay on UACC-257 melanoma it was 22.6 µM; in the assay with SF-268 CNS it was 35.3 µM; in the assay with HCC-2998 colon, 13.1 µM; with M14 melanoma, 25.6 µM; in the assay on SW-620 colon, 28.6 µM. Further, the TGI in the assay on TK-10 renal stood at 23.2 µM; in the assay with EKVX NSCLC it was 24.9 µM; in the assay on HT29 colon, 27.9 µM; in the assay on RXF 393 renal it was 29.9 µM; in the assay with SK-MEL-2 melanoma it was 24.1 µM; in the assay with NCI-H460 lung, 24.8 µM. Moreover, the TGI in the assay on SK-OV-3 ovarian amounted to 31.2 µM.
In the case of `Oc1ccc([I+]c2ccccc2)cc1O`, the TGI in the assay on KM12 colon was 70.7 µM; in the assay with RPMI-8226 leukemia, 61.4 µM; in the assay with NCI-H23 lung it was > 100 µM; in the assay with SF-295 CNS, > 100 µM; in the assay on SN12C renal it was > 100 µM; in the assay with MDA-MB-435, 66.2 µM. For the same compound, the TGI in the assay on SNB-75 CNS is > 100 µM; in the assay with HL-60(TB) leukemia, 47.1 µM; in the assay on UACC-257 melanoma, > 100 µM; in the assay on SF-268 CNS, > 100 µM; in the assay on HCC-2998 colon, 64.2 µM; in the assay with SW-620 colon it was 37.1 µM. The TGI with TK-10 renal, in the assay on EKVX NSCLC, in the assay on HT29 colon, in the assay with RXF 393 renal and in the assay with NCI-H460 lung was > 100 µM throughout.
For `Cc1ccc(S(=O)(=O)N/N=C/C2(c3ccccc3)c3ccccc3-c3ccccc32)cc1`, the TGI in the assay with KM12 colon is 20.2 µM; in the assay on RPMI-8226 leukemia, 87.2 µM; in the assay on NCI-H23 lung, 37.1 µM; in the assay on SF-295 CNS, 16.1 µM; in the assay on SN12C renal, 23.9 µM; in the assay with MDA-MB-435, 24.4 µM. Further, the TGI in the assay on HL-60(TB) leukemia is > 100 µM; in the assay on UACC-257 melanoma, 31.4 µM; with SF-268 CNS, 52.7 µM; with HCC-2998 colon it was 26.3 µM; in the assay on M14 melanoma, 23.3 µM; in the assay with SW-620 colon it was 31 µM. Besides, the TGI worked out at 98.5 µM in the assay on TK-10 renal; 30.2 µM in the assay with EKVX NSCLC; 26.3 µM in the assay with HT29 colon; 27.3 µM with RXF 393 renal; 25.9 µM in the assay with SK-MEL-2 melanoma; 18.2 µM in the assay with NCI-H460 lung. The compound also registered a TGI in the assay on SK-OV-3 ovarian of 39.8 µM.
Regarding `CC1(C)C2CCC1(C)[C@H](n1c(=O)n([C@@H]3CC4CCC3(C)C4(C)C)c(=O)n([C@@H]3CC4CCC3(C)C4(C)C)c1=O)C2`, the TGI with KM12 colon is > 100 µM; in the assay on RPMI-8226 leukemia, > 100 µM; with NCI-H23 lung it was > 100 µM; in the assay with SF-295 CNS it was > 100 µM; in the assay on MDA-MB-435 it was > 100 µM; with SNB-75 CNS, 46.5 µM. In addition, the TGI was 63.1 µM in the assay on HL-60(TB) leukemia; > 100 µM in the assay on UACC-257 melanoma; > 100 µM in the assay on SF-268 CNS; 57.5 µM in the assay with HCC-2998 colon; > 100 µM in the assay with M14 melanoma; > 100 µM in the assay with SW-620 colon. For the same compound, the TGI is > 100 µM in the assay with TK-10 renal; 67.1 µM in the assay with EKVX NSCLC; > 100 µM in the assay with HT29 colon; 55.8 µM with RXF 393 renal; 72.7 µM in the assay on SK-MEL-2 melanoma; > 100 µM in the assay with NCI-H460 lung.
On to `CCCC(=O)OC1CC(n2cc(F)c(=O)[nH]c2=O)OC1COP(=O)(OCC(Cl)(Cl)Cl)OCC(Cl)(Cl)Cl` (centres undefined), for which the TGI was > 100 µM with KM12 colon; 86.4 µM in the assay on RPMI-8226 leukemia; > 100 µM with NCI-H23 lung; 16.8 µM with SF-295 CNS; > 100 µM in the assay with SN12C renal; > 100 µM in the assay with MDA-MB-435. Also, the TGI is 76.6 µM in the assay on SNB-75 CNS; 40.4 µM with HL-60(TB) leukemia; > 92 µM with UACC-257 melanoma; > 31.6 µM in the assay on SF-268 CNS; 3.34 µM in the assay on HCC-2998 colon; > 31.6 µM in the assay with M14 melanoma. The TGI with SW-620 colon is > 100 µM; in the assay on TK-10 renal it was > 100 µM; with EKVX NSCLC, > 100 µM; with HT29 colon, 41.3 µM; with SK-MEL-2 melanoma, > 100 µM; in the assay with NCI-H460 lung, 28.8 µM. Also, the TGI with SK-OV-3 ovarian was > 31.6 µM.
As to `COC(=O)C1CCC(=O)N1C(c1ccc(OC)cc1)c1ccc2c(c1)OCO2` (centres undefined), the TGI was > 100 µM in the assay with KM12 colon; > 100 µM in the assay with RPMI-8226 leukemia; > 100 µM with NCI-H23 lung; 48 µM with SF-295 CNS; > 100 µM in the assay with SN12C renal; 28.7 µM in the assay with MDA-MB-435. Moreover, the TGI in the assay with SNB-75 CNS was 78.9 µM; with HL-60(TB) leukemia, 91.2 µM; in the assay with UACC-257 melanoma, > 100 µM; in the assay on SF-268 CNS, > 100 µM; with HCC-2998 colon, > 100 µM; with M14 melanoma it was > 100 µM. In addition, the TGI in the assay on SW-620 colon, in the assay with TK-10 renal, with EKVX NSCLC, with HT29 colon, with SK-MEL-2 melanoma and in the assay on NCI-H460 lung was > 100 µM in each case. Also, in the assay with SK-OV-3 ovarian, the TGI is > 100 µM.
For the compound `CS(=O)(=O)OCC(CCl)(CCl)CCl`, the TGI with KM12 colon, with NCI-H23 lung, in the assay with SF-295 CNS, in the assay on SN12C renal, with MDA-MB-435 and in the assay on SNB-75 CNS was > 100 µM each time. Also, the TGI with UACC-257 melanoma, with SF-268 CNS, in the assay with HCC-2998 colon, in the assay with M14 melanoma, in the assay with SW-620 colon and with TK-10 renal was > 100 µM in each case. In addition, the TGI with HT29 colon, in the assay on RXF 393 renal, in the assay on NCI-H460 lung and in the assay on SK-OV-3 ovarian was > 100 µM throughout.

Values taken from PubChem BioAssay (NCI).
